Source: patent publication US10829473B2, “Modulators of the cystic fibrosis transmembrane conductance regulator protein and methods of use” (AbbVie Overseas S.Á.R.L., priority 2017, dated 2020)
Where two headings read alike, the source gives them in different places.

Molecular target: T1, F508delCFTR (Homo sapiens, UniProt P13569, DEL508-508)
T1 construct: expressed in transfected cells; host or cells: CFBE41o- human lung derived epithelial cells (CFBE41o-F508delCFTR-HRP), doxycycline-inducible
T1 sequence (P13569 with tags, fused parts or gaps DEL508-508): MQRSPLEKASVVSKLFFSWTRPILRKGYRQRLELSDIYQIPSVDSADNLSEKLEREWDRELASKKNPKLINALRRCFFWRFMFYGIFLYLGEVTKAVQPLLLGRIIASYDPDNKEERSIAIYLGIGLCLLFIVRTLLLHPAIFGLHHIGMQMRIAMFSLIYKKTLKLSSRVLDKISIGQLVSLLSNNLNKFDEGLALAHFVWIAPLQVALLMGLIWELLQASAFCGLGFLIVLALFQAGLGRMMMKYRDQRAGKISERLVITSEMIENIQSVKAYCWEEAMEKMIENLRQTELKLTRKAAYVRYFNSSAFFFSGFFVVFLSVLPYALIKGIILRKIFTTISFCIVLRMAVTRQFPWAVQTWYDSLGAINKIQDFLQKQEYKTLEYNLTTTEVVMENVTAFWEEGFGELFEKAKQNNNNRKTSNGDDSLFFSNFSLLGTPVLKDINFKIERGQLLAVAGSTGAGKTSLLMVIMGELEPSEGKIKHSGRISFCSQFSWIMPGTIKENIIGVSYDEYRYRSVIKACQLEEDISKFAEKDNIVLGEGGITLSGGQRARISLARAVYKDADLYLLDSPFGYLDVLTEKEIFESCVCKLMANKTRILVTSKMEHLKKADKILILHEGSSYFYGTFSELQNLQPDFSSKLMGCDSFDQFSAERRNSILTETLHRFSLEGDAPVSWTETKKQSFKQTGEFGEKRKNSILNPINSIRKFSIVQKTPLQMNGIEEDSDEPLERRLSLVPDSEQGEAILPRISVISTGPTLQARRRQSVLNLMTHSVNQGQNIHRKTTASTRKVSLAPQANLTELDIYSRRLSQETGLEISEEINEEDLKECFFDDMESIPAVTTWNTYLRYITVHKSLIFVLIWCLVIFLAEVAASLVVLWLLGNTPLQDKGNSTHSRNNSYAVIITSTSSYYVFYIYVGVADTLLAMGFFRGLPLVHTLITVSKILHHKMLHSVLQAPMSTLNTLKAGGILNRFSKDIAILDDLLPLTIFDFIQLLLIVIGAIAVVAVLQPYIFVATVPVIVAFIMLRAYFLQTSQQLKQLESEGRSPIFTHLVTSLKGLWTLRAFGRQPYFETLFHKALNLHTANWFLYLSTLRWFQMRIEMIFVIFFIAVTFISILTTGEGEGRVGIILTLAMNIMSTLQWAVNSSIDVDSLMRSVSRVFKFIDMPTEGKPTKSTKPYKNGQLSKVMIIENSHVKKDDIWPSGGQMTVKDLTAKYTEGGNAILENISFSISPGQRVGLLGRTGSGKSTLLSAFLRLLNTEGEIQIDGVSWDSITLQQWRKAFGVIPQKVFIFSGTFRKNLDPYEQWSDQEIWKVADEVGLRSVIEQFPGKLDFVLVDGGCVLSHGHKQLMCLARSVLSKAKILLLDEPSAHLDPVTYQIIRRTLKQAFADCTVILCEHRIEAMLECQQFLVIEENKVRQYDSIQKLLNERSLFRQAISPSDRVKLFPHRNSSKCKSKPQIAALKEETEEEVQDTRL
Assay: Cell Surface Expression-Horse Radish Peroxidase (CSE-HRP) Assay;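 on EC50 (with co-corrector): co-corrector chromenyl benzoic acid corrector at 2 or 3 µM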;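 on Maximum % activity (without co-corrector): % of on-plate positive control chromenyl benzoic acid corrector at 2 or 3 µM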
Format: cell-based
Conditions: for Maximum % activity (with co-corrector) / Emax: maximum at any tested concentration; for Emax: read-out: Maximum % activity (without co-corrector)
Procedure, shortened: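 Corrector compounds were given as 8-point 3-fold series from 20 or 30 μM, with or without a 2 μM co-corrector, for 18-24 h at 33 °C. Surface HRP was read by luminol luminescence as % of positive control; variable-Hill-slope sigmoidal fitting gave EC50 from triplicate plates.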

[1] = test compound with co-corrector
[2] = test compound with co-corrector, read-out: EC50 (with co-corrector)
[3] = test compound without co-corrector
[4] = test compound without co-corrector, read-out: EC50 (without co-corrector)
[5] = test compound alone, without co-corrector, read-out: EC50 (without co-corrector)
[6] = with co-corrector, read-out: EC50 (with co-corrector)

| Compound | Maximum % activity (with co-corrector) [1] | EC50 [2] | Emax [3] | EC50 [4] | EC50 [5] | Maximum % activity (with co-corrector) (with co-corrector) | EC50 [6] | Emax (without co-corrector) |
| --- | --- | --- | --- | --- | --- | --- | --- | --- |
| COc1ccc(Br)cc1C1(C(=O)NS(=O)(=O)c2cccc3ccccc23)CC1 [Example I-1, 1-(5-bromo-2-methoxyphenyl)-N-(naphthalene-1-sulfonyl)cyclopropane-1-carboxamide] |  |  |  |  | < 3 µM | +++ (≥350) | < 3 µM | > 150% |
| COc1ccc(C2CCC2)cc1C1(C(=O)NS(=O)(=O)c2cccc3ccccc23)CC1 [Example I-2, 1-(5-cyclobutyl-2-methoxyphenyl)-N-(naphthalene-1-sulfonyl)cyclopropane-1-carboxamide] |  |  |  |  | < 3 µM | +++ (≥350) | < 3 µM | > 150% |
| COc1ncc(C2CCC2)cc1C1(C(=O)NS(=O)(=O)c2cccc3nc(C)ccc23)CC1 [Example I-3, 1-(5-cyclobutyl-2-methoxypyridin-3-yl)-N-(2-methylquinoline-5-sulfonyl)cyclopropane-1-carboxamide] |  |  |  |  | < 3 µM | +++ (≥350) | < 3 µM | > 150% |
| COc1ncc(C2CCC2)cc1C1(C(=O)NS(=O)(=O)c2cccc3ncccc23)CC1 [Example I-4, 1-(5-cyclobutyl-2-methoxypyridin-3-yl)-N-(quinoline-5-sulfonyl)cyclopropane-1-carboxamide] |  |  |  |  | < 3 µM | +++ (≥350) | < 3 µM | > 150% |
| COc1ncc(C2CCC2)cc1C1(C(=O)NS(=O)(=O)c2cccc3ccccc23)CC1 [Example I-5, 1-(5-cyclobutyl-2-methoxypyridin-3-yl)-N-(naphthalene-1-sulfonyl)cyclopropane-1-carboxamide] |  |  |  |  | 3 to 10 µM | +++ (≥350) | < 3 µM | > 150% |
| COc1ncc(C2CCC2)cc1C1(C(=O)NS(=O)(=O)c2cccc3c2CCCN3)CC1 [Example I-6, 1-(5-cyclobutyl-2-methoxypyridin-3-yl)-N-(1,2,3,4-tetrahydroquinoline-5-sulfonyl)cyclopropane-1-carboxamide] |  |  |  |  | < 3 µM | +++ (≥350) | < 3 µM | > 150% |

Other lines, results leading:

| Maximum % activity (with co-corrector) [1] | EC50 [2] | Emax [3] | EC50 [4] | EC50 [5] | Maximum % activity (with co-corrector) (with co-corrector) | EC50 [6] | Emax (without co-corrector) | Compound |
| --- | --- | --- | --- | --- | --- | --- | --- | --- |
| +++ (≥350) | < 3 µM | > 150% | 3 to 10 µM |  |  |  |  | CCc1cnc(OCCOC)c(C2(C(=O)NS(=O)(=O)c3cccc4[nH]ccc34)CC2)c1 [Example GI-109, 1-[5-ethyl-2-(2-methoxyethoxy)pyridin-3-yl]-N-(1H-indole-4-sulfonyl)cyclopropane-1-carboxamide] |
| +++ (≥350) | < 3 µM | > 150% | < 3 µM |  |  |  |  | Cc1ccc2c(S(=O)(=O)NC(=O)C3(c4cc(C5CCC5)cnc4OCC4CC4)CC3)cccc2n1 [Example GI-110, 1-[5-cyclobutyl-2-(cyclopropylmethoxy)pyridin-3-yl]-N-(2-methylquinoline-5-sulfonyl)cyclopropane-1-carboxamide] |
| +++ (≥350) | < 3 µM | > 150% | < 3 µM |  |  |  |  | COCCOc1ncc(C2CCC2)cc1C1(C(=O)NS(=O)(=O)c2cccc3ncccc23)CC1 [Example GI-111, 1-[5-cyclobutyl-2-(2-methoxyethoxy)pyridin-3-yl]-N-(quinoline-5-sulfonyl)cyclopropane-1-carboxamide] |
| +++ (≥350) | < 3 µM | > 150% | 3 to 10 µM |  |  |  |  | CCc1cnc(OCCOC)c(C2(C(=O)NS(=O)(=O)c3cccc4ncccc34)CC2)c1 [Example GI-112, 1-[5-ethyl-2-(2-methoxyethoxy)pyridin-3-yl]-N-(quinoline-5-sulfonyl)cyclopropane-1-carboxamide] |
| +++ (≥350) | < 3 µM | > 150% | < 3 µM |  |  |  |  | Cc1ccc2c(S(=O)(=O)NC(=O)C3(c4cc(C5CCC5)cnc4N4CCC(OC(C)C)CC4)CC3)cccc2n1 [Example GI-113, 1-(5-cyclobutyl-2-{4-[(propan-2-yl)oxy]piperidin-1-yl}pyridin-3-yl)-N-(2-methylquinoline-5-sulfonyl)cyclopropane-1-carboxamide] |
| +++ (≥350) | < 3 µM | > 150% | 3 to 10 µM |  |  |  |  | CCOc1ncc(C2CCC2)cc1C1(C(=O)NS(=O)(=O)c2cccc3ncccc23)CC1 [Example GI-114, 1-(5-cyclobutyl-2-ethoxypyridin-3-yl)-N-(quinoline-5-sulfonyl)cyclopropane-1-carboxamide] |
| +++ (≥350) | < 3 µM | > 150% | < 3 µM |  |  |  |  | CCOc1ncc(C2CCC2)cc1C1(C(=O)NS(=O)(=O)c2cccc3nc(C)ccc23)CC1 [Example GI-115, 1-(5-cyclobutyl-2-ethoxypyridin-3-yl)-N-(2-methylquinoline-5-sulfonyl)cyclopropane-1-carboxamide] |
| +++ (≥350) | < 3 µM | > 150% | 3 to 10 µM |  |  |  |  | CCOc1ncc(CC)cc1C1(C(=O)NS(=O)(=O)c2cccc3ncccc23)CC1 [Example GI-116, 1-(2-ethoxy-5-ethylpyridin-3-yl)-N-(quinoline-5-sulfonyl)cyclopropane-1-carboxamide] |
| +++ (≥350) | < 3 µM | > 150% | < 3 µM |  |  |  |  | CCOc1ncc(CC)cc1C1(C(=O)NS(=O)(=O)c2cccc3nc(C)ccc23)CC1 [Example GI-117, 1-(2-ethoxy-5-ethylpyridin-3-yl)-N-(2-methylquinoline-5-sulfonyl)cyclopropane-1-carboxamide] |
| +++ (≥350) | < 3 µM | > 150% | < 3 µM |  |  |  |  | COCC1CCN(c2ncc(C3CCC3)cc2C2(C(=O)NS(=O)(=O)c3cccc4[nH]ccc34)CC2)CC1 [Example GI-118, 1-{5-cyclobutyl-2-[4-(methoxymethyl)piperidin-1-yl]pyridin-3-yl}-N-(1H-indole-4-sulfonyl)cyclopropane-1-carboxamide] |
| +++ (≥350) | < 3 µM | > 150% | < 3 µM |  |  |  |  | COCC1(c2cnc(OC(C)C)c(C3(C(=O)NS(=O)(=O)c4cccc5ccccc45)CC3)c2)CC1 [Example GI-119, 1-{5-[1-(methoxymethyl)cyclopropyl]-2-[(propan-2-yl)oxy]pyridin-3-yl}-N-(naphthalene-1-sulfonyl)cyclopropane-1-carboxamide] |
| +++ (≥350) | < 3 µM | > 150% | 3 to 10 µM |  |  |  |  | CCc1cnc(N2CCC(COC)CC2)c(C2(C(=O)NS(=O)(=O)c3cccc4[nH]ccc34)CC2)c1 [Example GI-120, 1-{5-ethyl-2-[4-(methoxymethyl)piperidin-1-yl]pyridin-3-yl}-N-(1H-indole-4-sulfonyl)cyclopropane-1-carboxamide] |
| +++ (≥350) | < 3 µM | > 150% | < 3 µM |  |  |  |  | COCC1CCN(c2ncc(C3CCC3)cc2C2(C(=O)NS(=O)(=O)c3cccc4ncccc34)CC2)CC1 [Example GI-121, 1-{5-cyclobutyl-2-[4-(methoxymethyl)piperidin-1-yl]pyridin-3-yl}-N-(quinoline-5-sulfonyl)cyclopropane-1-carboxamide] |
